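A five-concentration, 48-hour dose response in 96-well plates underlies each endpoint, interpolated linearly between surrounding concentrations. GI50 is the concentration that inhibits growth by half. TGI: concentration producing complete growth inhibition.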
Experiments:
Experiment in all cases: DTP human tumour cell line panel, 48 h
A549 NSCLC = system: A549 NSCLC
HCT-116 colon = system: HCT-116 colon
HOP-62 NSCLC = system: HOP-62 NSCLC
KM12 colon = system: KM12 colon
MALME-3M melanoma = system: MALME-3M melanoma
OVCAR-3 ovarian = system: OVCAR-3 ovarian
SF-295 CNS = system: SF-295 CNS
BT-549 breast = system: BT-549 breast
UO-31 renal = system: UO-31 renal
HCC-2998 colon = system: HCC-2998 colon

SMILES	GI50 (A549 NSCLC) [µM]	TGI (A549 NSCLC) [µM]	GI50 (HCT-116 colon) [µM]	TGI (HCT-116 colon) [µM]	GI50 (HOP-62 NSCLC) [µM]	TGI (HOP-62 NSCLC) [µM]	GI50 (KM12 colon) [µM]	TGI (KM12 colon) [µM]	GI50 (MALME-3M melanoma) [µM]	TGI (MALME-3M melanoma) [µM]	GI50 (OVCAR-3 ovarian) [µM]	TGI (OVCAR-3 ovarian) [µM]	GI50 (SF-295 CNS) [µM]	TGI (SF-295 CNS) [µM]	GI50 (BT-549 breast) [µM]	TGI (BT-549 breast) [µM]	GI50 (UO-31 renal) [µM]	TGI (UO-31 renal) [µM]	GI50 (HCC-2998 colon) [µM]	TGI (HCC-2998 colon) [µM]
COc1cc2nc(-c3ccc(Cl)cc3)cc(OCCCN3CCCCC3)c2cc1OC	1.9	> 100	0.828	> 100	2.37	> 100	3.07	> 100	1.74	4.53	3.23	> 100	1.21	2.81						
CCN(CC)CCOc1ccc(-c2nc3cc(Cl)ccc3s2)cc1	1.75	3.47	1.25	2.5	1.74	3.25			1.45	2.8			1.38	2.77	1.83	5.73	1.66	3.37		
Cn1cc(CO)c2c1C(=O)C=C(N1CC1)C2=O	< 0.01	3.68	< 0.0106		< 0.01	< 0.0116	0.0145	0.0855			< 0.0133	0.0375	< 0.01		< 0.0128	0.133			< 0.0122	0.049
Cc1cc(CC(O)c2ccc(Cl)c(Cl)c2)nc(=O)[nH]1 (stereo unspecified)		66		54.2		86.5		> 100		> 100		> 100		90				> 100		
N#Cc1c(NN)n(C2OC(CO)C(O)C2O)c2ncnc(N)c12 (stereo unspecified)	0.0353	> 100			0.247	2.02	0.0874	1.72	0.0858	1.35	0.028	0.299	0.344	47.8	0.271	2.8	0.0417	0.774	0.292	2.41
CN1CCN(CCOc2ccc(-c3cnc4c(-c5ccccc5F)cnn4c3)cc2)CC1					1.7	3.54	0.647	2.12	1.56	2.95	1.81	4.02	1.76	3.2	1.9	3.77	1.33	2.69	1.73	3.25
O=S1(=O)C[C@H](O)[C@H](O)CS1		> 100		> 100		> 100		> 100		> 100		> 100		> 100				> 100		> 100
NNC(=S)N/N=C(\CC1OC(=O)c2ccccc21)c1ccccc1O (stereo unspecified)		> 100		> 100		> 100		> 100		> 100		> 100		40.4				> 100		> 100
CNC(=O)N(C)N=NCCCl		> 100		> 100		> 100		> 100		> 100		> 100		> 100				> 100		> 100
CCOC(=O)CCCn1c(SC)nc2[nH]cc(-c3ccccc3)c2c1=O	12.2	36.2	14.1	34	11	40.4	16.8	38.2	15.1	42.1	16.8	42.6	11.6	34.2			19.9	57.9	> 100	> 100
COc1ccc2c(c1)CCCC(Br)C2=O (stereo unspecified)		> 43.6				33.4		12.8		21.5		37.7		17.2		7.31		4.71		> 100
CN(C)N=Nc1ccc(NC=O)cc1		> 100		> 100		> 100		> 100				> 100		> 100		> 100		> 100		> 100
COC(=O)C1=C(O)c2cc(OC)c(OC)cc2C(c2ccc(OC)c(OC)c2)C1 (stereo unspecified)		> 100		> 100		> 100		> 100		> 100		> 100		> 100				> 100		> 100
C=C(CNCc1ccccc1)c1ccc(C(=O)Nc2ccccc2N)cc1	7.34	> 100	15	> 100	4.57	> 100	4.05	21.3			7.31	34.2	7.28	37	15.4	> 100	3.64	18.2	2.22	5.4
COC1(OC)CC2C(=O)N(Cc3ccccc3)C1C(S(=O)(=O)c1ccccc1)C2S(=O)(=O)c1ccccc1 (stereo unspecified)		75		29.9		> 100		34.1		29.3		22.9		> 100				31.3		31.1
O=C(O)CCC(=O)c1ccc[nH]1		> 100		> 100		> 100		> 100		> 100		> 100		> 100		> 100		> 100		
CCCCC(C(=O)C(=O)NC1C2CC3CC(C2)CC1C3)C(=O)C(C)C (stereo unspecified)		> 100		> 100		> 100		> 100		> 100		> 100		> 100				> 100		> 100
NC(=Nc1c([N+](=O)[O-])cnc2ccccc12)N1CCOCC1		> 100		> 100		> 100		> 100				> 100		> 100		> 100		> 100		
Cc1nn(-c2ccccc2)c2nc(N3CCOCC3)nnc12		> 100		> 100		> 100		> 100		> 100		> 100		> 100				> 100		> 100
CN(C)c1nc2ccccc2[nH]1		> 100				> 100		> 100		> 100		> 100		> 100				> 100		> 100
